Experimental data published in US20260201008A1, “SECRETIN-DERIVED GLP1R SELECTIVE AGONISTS” (GUBRA A/S, priority 2023, published 2026).
Where two headings read alike, the source gives them in different places. Numbered stars: 1 amine (or outer) side, 2 acyl side, 3 side chain; on linkers, the order of the positions; unused ones are H or OH. Square brackets hold non-standard residues; d marks the D form. Side chains are listed from the residue outwards. Peptide text beside a SMILES is read from it. * marks the point of attachment. C20 diacid = O=C(O)CCCCCCCCCCCCCCCCCCC(=O)*; γGlu = O=C(O)[C@H](CCC(=O)[*:2])N[*:1]; AEEA = NCCOCCOCC(=O)O; Aib = CC(C)(N)C(=O)O

Key:
[1] = Fibril formation of crude library peptides (Thioflavin T); format: physicochemical; set-up: key: average ThT fluorescence emission at 480 nm (ex 450 nm), raw units; conditions: Physical stability of peptides
Summary of the method: (§1)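 Turbidity is the absorbance at 600 nm, taken before heating. Fibril signal is the mean ThT emission at 480 nm (450 nm excitation), read every 10 min over 72 h at 40° C with 700 rpm shaking between reads. Peptides at 267 μM, pH 4.0 acetate or pH 7.0 phosphate buffer (50 mM), 4 μM ThT final.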

SCTR = SCTR (Homo sapiens, UniProt P47872); test: hSCTR potency, cAMP accumulation in CHO-K1 cells stably overexpressing hSCTR; format: cell-based; set-up: alternatively Euroscreen ES-712-AF; FAST-0161L; host or cells: CHO-K1; conditions: cAMP accumulation
SCTR, sequence (P47872 23-440): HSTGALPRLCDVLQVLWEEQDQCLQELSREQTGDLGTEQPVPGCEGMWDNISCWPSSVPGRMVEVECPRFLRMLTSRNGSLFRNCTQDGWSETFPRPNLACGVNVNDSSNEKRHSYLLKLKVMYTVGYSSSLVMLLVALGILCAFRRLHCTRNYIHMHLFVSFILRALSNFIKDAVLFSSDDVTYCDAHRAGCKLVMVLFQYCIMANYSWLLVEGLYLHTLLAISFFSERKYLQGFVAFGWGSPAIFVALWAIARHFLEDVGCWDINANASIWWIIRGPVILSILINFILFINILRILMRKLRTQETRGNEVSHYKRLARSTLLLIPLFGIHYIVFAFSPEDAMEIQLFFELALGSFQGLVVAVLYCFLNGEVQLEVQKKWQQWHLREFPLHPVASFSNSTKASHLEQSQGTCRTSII
Summary of the method: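 EC50 derived from variable-slope nonlinear regression on 11-point, 3-fold series run in duplicate (crude peptides: 5 points, 10-fold, n=1). Compound stimulation lasted 30 min at room temperature in casein/IBMX-containing DPBS (0.05%, 0.5 mM), 2000 cells/well; cAMP detected by time-resolved FRET after one hour.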

[2] = Turbidity of crude library peptides (absorbance at 600 nm); format: physicochemical; conditions: Physical stability of peptides
Summary of the method: as §1

GLP1R = GLP1R (Homo sapiens, UniProt P43220); test: hGLP1R potency, cAMP accumulation in CHO-K1 cells stably overexpressing hGLP1R; format: cell-based; set-up: host or cells: CHO-K1; conditions: for EC50: cAMP accumulation; for SCTR EC50/GLP1R EC50 ratio: cAMP accumulation in CHO-K1 cells
GLP1R, sequence (P43220 24-463): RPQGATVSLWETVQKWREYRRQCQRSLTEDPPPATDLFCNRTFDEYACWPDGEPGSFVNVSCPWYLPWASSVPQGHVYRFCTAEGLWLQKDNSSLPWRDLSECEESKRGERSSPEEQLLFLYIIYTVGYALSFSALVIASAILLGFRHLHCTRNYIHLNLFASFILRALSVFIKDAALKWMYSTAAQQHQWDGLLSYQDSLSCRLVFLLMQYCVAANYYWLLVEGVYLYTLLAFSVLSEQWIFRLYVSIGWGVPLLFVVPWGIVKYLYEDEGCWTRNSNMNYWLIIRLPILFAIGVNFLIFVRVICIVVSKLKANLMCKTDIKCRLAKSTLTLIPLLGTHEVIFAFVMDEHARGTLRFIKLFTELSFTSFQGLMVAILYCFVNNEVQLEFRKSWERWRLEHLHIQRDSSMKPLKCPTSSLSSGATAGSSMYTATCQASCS
Summary of the method: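 EC50 derives from variable-slope nonlinear regression of cAMP HTRF signal, with purified peptides tested as 11 three-fold dilutions in duplicate. Assay: hGLP1R-overexpressing CHO-K1 cells, 0.5 mM IBMX, 0.05% casein in DPBS, 30 min room-temperature stimulation, GLP-1(7-36) as reference agonist.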

[3] = CHO-K1 cells stably overexpressing hSCTR, read-out: hSCTR potency (pEC50) (converted)
[4] = CHO-K1 cells stably overexpressing hGLP1R, read-out: hGLP1R potency (pEC50) (converted)
[5] = selectivity ratio, hSCTR vs hGLP1R
[6] = CHO-K1 cells overexpressing hSCTR, read-out: hSCTR pEC50 (converted)
[7] = CHO-K1 cells overexpressing hGLP1R, read-out: hGLP1R pEC50 (converted)
[8] = selectivity for hGLP1R over hSCTR

Compound | Fibril formation [1] | EC50 (SCTR; [3]) [nM] | Turbidity (pH 7) [2] | EC50 (GLP1R; [4]) [nM] | SCTR EC50/GLP1R EC50 ratio (GLP1R; [5]) | EC50 (SCTR; [6]) [nM] | EC50 (GLP1R; [7]) [nM] | SCTR EC50/GLP1R EC50 ratio (GLP1R; [8]) | EC50 (SCTR; CHO-K1 cells overexpressing hSCTR, read-out: pEC50 hSCTR (converted)) [nM] | Selectivity (GLP1R; SCTR EC50/GLP1R EC50 ratio) | EC50 (GLP1R; CHO-K1 cells overexpressing hGLP1R, read-out: pEC50 hGLPR1 (converted)) [nM]
CC[C@H](C)[C@H](NC(=O)[C@H](Cc1ccccc1)NC(=O)[C@H](CCCNC(=N)N)NC(=O)[C@H](CCC(N)=O)NC(=O)[C@H](CC(C)C)NC(=O)[C@H](C)NC(=O)[C@H](C)NC(=O)CNC(=O)[C@H](CCC(=O)O)NC(=O)[C@H](CC(C)C)NC(=O)[C@H](CC(C)C)NC(=O)CNC(=O)[C@H](CO)NC(=O)[C@H](Cc1c[nH]c2ccccc12)NC(=O)[C@H](CC(=O)O)NC(=O)[C@H](CO)NC(=O)[C@@H](NC(=O)[C@H](Cc1ccccc1)NC(=O)[C@@H](NC(=O)CNC(=O)[C@H](CCC(=O)O)NC(=O)C(C)(C)NC(=O)[C@@H](N)Cc1c[nH]cn1)[C@@H](C)O)[C@@H](C)O)C(=O)N[C@@H](CCC(N)=O)C(=O)N[C@@H](Cc1c[nH]c2ccccc12)C(=O)N[C@@H](CC(C)C)C(=O)N[C@H](C(N)=O)C(C)C [compound 187] (H-H[Aib]EGTFTSDWSGLLEGAALQRFIQWLV-NH2) | 13388 | 50.1 | 0.62 | 0.0398 | 1437 | – | – | – | – | – | –
CC[C@H](C)[C@H](NC(=O)[C@H](Cc1ccccc1)NC(=O)[C@H](CCCNC(=N)N)NC(=O)[C@H](CCC(N)=O)NC(=O)[C@H](CC(C)C)NC(=O)[C@H](C)NC(=O)[C@H](C)NC(=O)CNC(=O)[C@H](CCC(=O)O)NC(=O)[C@H](CC(C)C)NC(=O)[C@H](CC(C)C)NC(=O)[C@H](CCC(=O)O)NC(=O)[C@H](CO)NC(=O)C(C)(C)NC(=O)[C@H](CC(=O)O)NC(=O)[C@H](CO)NC(=O)[C@@H](NC(=O)[C@H](Cc1ccccc1)NC(=O)[C@@H](NC(=O)CNC(=O)[C@H](CCC(=O)O)NC(=O)C(C)(C)NC(=O)[C@@H](N)Cc1c[nH]cn1)[C@@H](C)O)[C@@H](C)O)C(=O)N[C@@H](CCC(N)=O)C(=O)N[C@@H](Cc1c[nH]c2ccccc12)C(=O)N[C@@H](CC(C)C)C(=O)N[C@H](C(N)=O)C(C)C [compound 109] (H-H[Aib]EGTFTSD[Aib]SELLEGAALQRFIQWLV-NH2) | 3301 | – | 0.08 | – | – | 3160 | 0.0794 | 39765 | – | – | –
CC[C@H](C)[C@H](NC(=O)[C@H](Cc1ccccc1)NC(=O)[C@H](CCCNC(=N)N)NC(=O)[C@H](CCC(N)=O)NC(=O)[C@H](CC(C)C)NC(=O)[C@H](C)NC(=O)[C@H](C)NC(=O)CNC(=O)[C@H](CCC(=O)O)NC(=O)[C@H](CC(C)C)NC(=O)[C@H](CC(C)C)NC(=O)[C@H](Cc1ccc(O)cc1)NC(=O)[C@H](CO)NC(=O)[C@H](Cc1ccc(O)cc1)NC(=O)[C@H](CC(=O)O)NC(=O)[C@H](CO)NC(=O)[C@@H](NC(=O)[C@H](Cc1ccccc1)NC(=O)[C@@H](NC(=O)CNC(=O)[C@H](CCC(=O)O)NC(=O)C(C)(C)NC(=O)[C@@H](N)Cc1c[nH]cn1)[C@@H](C)O)[C@@H](C)O)C(=O)N[C@@H](CCC(N)=O)C(=O)N[C@@H](Cc1c[nH]c2ccccc12)C(=O)N[C@@H](CC(C)C)C(=O)N[C@H](C(N)=O)C(C)C [compound 201] (H-H[Aib]EGTFTSDYSYLLEGAALQRFIQWLV-NH2) | 30208 | 12.6 | 0.30 | 0.0126 | 940 | – | – | – | – | – | –
CC(C)C[C@H](NC(=O)[C@H](Cc1ccccc1)NC(=O)[C@H](CCCNC(=N)N)NC(=O)[C@H](CCC(N)=O)NC(=O)[C@H](CCC(=O)O)NC(=O)[C@H](C)NC(=O)[C@H](C)NC(=O)[C@H](Cc1ccccc1)NC(=O)[C@H](CCC(=O)O)NC(=O)[C@H](CCCCNC(=O)COCCOCCNC(=O)COCCOCCNC(=O)CC[C@H](NC(=O)CCCCCCCCCCCCCCCCCCC(=O)O)C(=O)O)NC(=O)[C@H](CC(C)C)NC(=O)[C@@H](NC(=O)[C@H](CO)NC(=O)[C@@H](NC(=O)[C@H](CC(=O)O)NC(=O)[C@H](CO)NC(=O)[C@@H](NC(=O)[C@H](Cc1ccccc1)NC(=O)[C@@H](NC(=O)CNC(=O)[C@H](CCC(=O)O)NC(=O)C(C)(C)NC(=O)[C@@H](N)Cc1c[nH]cn1)[C@@H](C)O)[C@@H](C)O)C(C)C)[C@@H](C)O)C(=O)N[C@@H](CCC(=O)O)C(=O)N[C@@H](Cc1c[nH]cn1)C(=O)N[C@@H](CC(C)C)C(=O)N[C@H](C(N)=O)C(C)C [compound 89] (H-H[Aib]EGTFTSDVSTLK([AEEA-AEEA-γGlu-C20 diacid])EFAAEQRFLEHLV-NH2) | 14469 | – | 0.08 | – | – | 2000 | 0.02 | 81527 | – | – | –
CC[C@H](C)[C@H](NC(=O)[C@H](Cc1ccccc1)NC(=O)[C@H](CCCNC(=N)N)NC(=O)[C@H](CCC(N)=O)NC(=O)[C@H](CC(C)C)NC(=O)[C@H](C)NC(=O)[C@H](C)NC(=O)CNC(=O)[C@H](CCC(=O)O)NC(=O)[C@H](CC(C)C)NC(=O)[C@H](CC(C)C)NC(=O)[C@H](CCCNC(=N)N)NC(=O)[C@H](CO)NC(=O)[C@H](Cc1c[nH]c2ccccc12)NC(=O)[C@H](CC(=O)O)NC(=O)[C@H](CO)NC(=O)[C@@H](NC(=O)[C@H](Cc1ccccc1)NC(=O)[C@@H](NC(=O)CNC(=O)[C@H](CCC(=O)O)NC(=O)C(C)(C)NC(=O)[C@@H](N)Cc1c[nH]cn1)[C@@H](C)O)[C@@H](C)O)C(=O)N[C@@H](CCC(N)=O)C(=O)N[C@@H](Cc1c[nH]c2ccccc12)C(=O)N[C@@H](CC(C)C)C(=O)N[C@H](C(N)=O)C(C)C [compound 186] (H-H[Aib]EGTFTSDWSRLLEGAALQRFIQWLV-NH2) | 48618 | 6.31 | 1.04 | 0.0126 | 478 | – | – | – | – | – | –
CC(C)C[C@H](NC(=O)[C@H](Cc1ccccc1)NC(=O)[C@H](CCCNC(=N)N)NC(=O)[C@H](CCC(N)=O)NC(=O)[C@H](CCC(=O)O)NC(=O)[C@H](C)NC(=O)[C@H](C)NC(=O)[C@@H](NC(=O)[C@H](CCC(=O)O)NC(=O)[C@H](CCCCNC(=O)COCCOCCNC(=O)COCCOCCNC(=O)CC[C@H](NC(=O)CCCCCCCCCCCCCCCCCCC(=O)O)C(=O)O)NC(=O)[C@H](CC(C)C)NC(=O)[C@@H](NC(=O)[C@H](CO)NC(=O)[C@@H](NC(=O)[C@H](CC(=O)O)NC(=O)[C@H](CO)NC(=O)[C@@H](NC(=O)[C@H](Cc1ccccc1)NC(=O)[C@@H](NC(=O)CNC(=O)[C@H](CCC(=O)O)NC(=O)C(C)(C)NC(=O)[C@@H](N)Cc1c[nH]cn1)[C@@H](C)O)[C@@H](C)O)C(C)C)[C@@H](C)O)[C@@H](C)O)C(=O)N[C@@H](CCC(=O)O)C(=O)N[C@@H](Cc1c[nH]cn1)C(=O)N[C@@H](CC(C)C)C(=O)N[C@H](C(N)=O)C(C)C [compound 42] (H-H[Aib]EGTFTSDVSTLK([AEEA-AEEA-γGlu-C20 diacid])ETAAEQRFLEHLV-NH2) | 6253 | – | 0.08 | – | – | – | – | – | 3160 | 209363 | 0.0158
CC(C)C[C@H](NC(=O)[C@H](Cc1ccccc1)NC(=O)[C@H](CCCNC(=N)N)NC(=O)[C@H](CCC(N)=O)NC(=O)[C@H](CC(C)C)NC(=O)C(C)(C)NC(=O)[C@H](C)NC(=O)[C@H](CCC(=O)O)NC(=O)[C@H](CCC(=O)O)NC(=O)[C@H](CCCCNC(=O)COCCOCCNC(=O)COCCOCCNC(=O)CC[C@H](NC(=O)CCCCCCCCCCCCCCCCCCC(=O)O)C(=O)O)NC(=O)[C@H](CC(C)C)NC(=O)[C@H](Cc1c[nH]cn1)NC(=O)[C@H](CO)NC(=O)[C@@H](NC(=O)[C@H](CC(=O)O)NC(=O)[C@H](CO)NC(=O)[C@@H](NC(=O)[C@H](Cc1ccccc1)NC(=O)[C@@H](NC(=O)CNC(=O)[C@H](CCC(=O)O)NC(=O)C(C)(C)NC(=O)[C@@H](N)Cc1c[nH]cn1)[C@@H](C)O)[C@@H](C)O)C(C)C)C(=O)N[C@@H](CCC(=O)O)C(=O)N[C@@H](Cc1c[nH]cn1)C(=O)N[C@@H](CC(C)C)C(=O)N[C@H](C(N)=O)C(C)C [compound 145] (H-H[Aib]EGTFTSDVSHLK([AEEA-AEEA-γGlu-C20 diacid])EEA[Aib]LQRFLEHLV-NH2) | 2891 | – | 0.08 | – | – | 63.1 | 0.00794 | 8838 | – | – | –
